The subject of series [1] is adult female Sprague-Dawley rats. Nature of the series: rat infusion study: loss/recovery of righting reflex and walk (anaesthetic effect). The format is in vivo. Particulars: for minimal effective dose: Rattus norvegicus, iv, read-out: LRR Dose; for minimal effective dose / LRR Dose: total drug administered to achieve loss of righting reflex, i.v. infusion; for potency (in words) / recovery (in words) / properties of racemate versus enantiomer (in words): rat infusion study, discussion; for LRR Dose, head-to-head ratio to ketamine / LRR Time, head-to-head ratio to ketamine / RRR Time, head-to-head ratio to ketamine / Walk Time, head-to-head ratio to ketamine: ratio compound/ketamine; for Walk Time: time from end of infusion to independent locomotion; for RRR Time: time from end of infusion to recovery of righting reflex; for LRR Time: time from onset of i.v. infusion to loss of righting reflex, 20 mg/kg/min initially. The procedure:
(§1) All animal experiments were conducted at the Ruakura Research Centre, Hamilton, New Zealand, using experimental protocols reviewed and approved by the Ruakura Animal Ethics Committee (ethics ref 12604).
(§2) Following acquisition of baseline physiologic parameters (heart rate, respiratory rate, PWR, and righting reflex (RR)) adult female Sprague-Dawley rats of approximately 350-450 g were put under non-traumatic restraint and the marginal vein of the tail was cannulated. Ketamine or a compound of the invention at 10 mg/ml was administered via a minibore extension tube adequately secured to the tail. Infusions were commenced at a rate (weight-adjusted) to deliver 20 mg/kg/min initially (until the pedal withdrawal reflex score PWR=1), then were reduced to a rate of 6.7 mg/kg/min. Infusion rate was then titrated in an up-and-down fashion to maintain dorsal recumbency and a PWR=1 to 10 minutes before cessation. Three rats were used in each study, with each group of rats also acting as their own ketamine control. The order of study drug administration was determined by prior odds/evens randomisation with a recovery interval of at least one hour afforded between experiments. PWR and RR were recorded at 1 minute intervals throughout. The times from cessation of infusion to return of righting reflex (RRR), and from cessation of infusion to the animals displaying independent locomotion (walk) were recorded.
Loss of Righting Reflex (LRR):
This is primarily used to assess anaesthetic hypnotic effect. Righting reflex is judged absent when the rat fails to right from a position of dorsal recumbency to a position of sternal recumbency on three attempts performed in rapid succession. Dose to LRR is termed effective potency.

For series [2] the test system is unchanged. The series can be described thus: rat infusion study: pedal withdrawal reflex PWR = 1 (analgesic effect). The format is in vivo. To be noted: for minimal effective dose: Rattus norvegicus, iv; for minimal effective dose / PWR = 1 Dose: total drug administered to achieve PWR = 1, i.v. infusion; for PWR = 1 Dose, head-to-head ratio to ketamine / PWR = 1 Time, head-to-head ratio to ketamine: ratio compound/ketamine; for PWR = 1 Time: time from onset of i.v. infusion to PWR = 1. The procedure: as §1, §2
Pedal Withdrawal Reflex (PWR) Scoring:
Nociceptive testing in animals was conducted via 1 second application of constant pressure (firm digital pressure) over the forepaw of the animal. Pedal withdrawal reflex testing is primarily used to assess analgesic effect, and responses are graded accordingly: 0, absent; 1, flicker; 2, moderate withdrawal; 3, fast withdrawal; 4, Fast withdrawal with cry/preceding apnoea (modified from Buitrago, S. et al. J. Amer. Assoc. Lab. Animal. Sci. 2008, 47, 11-17).

In general, melting point refers to the temperature, or range, at which the solid turns liquid. The compound `CC(C)OC(=O)CCN[C@]1(c2ccccc2Cl)CCCCC1=O.Cl` [(S)-C2iPr, (S)-Isopropyl 3-((1-(2-chlorophenyl)-2-oxocyclohexyl)amino)propanoate hydrochloride] returned a melting point of 208 to 211 °C. Also, in series [1], the minimal effective dose came out at 74 ± 9 mg/kg; the “potency (in words)” value is given as “only half as potent”; the “recovery (in words)” value is “faster recoveries than the corresponding racemates”; the “LRR Dose, head-to-head ratio to ketamine” value was determined as 2.46. Moreover, in series [1], the “LRR Time, head-to-head ratio to ketamine” value amounted to 3.41; the “RRR Time, head-to-head ratio to ketamine” value was 0.02; the “Walk Time, head-to-head ratio to ketamine” value is listed as 0.19; the “Walk Time” value was determined as 224 ± 90 s. In series [1], the “RRR Time” value was found to be 15 ± 15 s and the “LRR Time” value was found to be 222 ± 18 s. In series [2], the minimal effective dose was determined as 84 ± 4 mg/kg; the “PWR = 1 Dose, head-to-head ratio to ketamine” value amounted to 2.47; the “PWR = 1 Time, head-to-head ratio to ketamine” value was 3.14; the “PWR = 1 Time” value is 247 ± 13 s.

`COC(=O)CCCCN[C@]1(c2ccccc2Cl)CCCCC1=O.Cl` [(S)-C4Me, (S)-Methyl 5-((1-(2-chlorophenyl)-2-oxocyclohexyl)amino)pentanoate Hydrochloride]: in series [1], the “properties of racemate versus enantiomer (in words)” value is reported as “broadly equivalent properties”; the “LRR Dose, head-to-head ratio to ketamine” value turned out to be 1.80; the “LRR Time, head-to-head ratio to ketamine” value was determined as 1.94; the “RRR Time, head-to-head ratio to ketamine” value was determined as 0.07. In addition, the “Walk Time, head-to-head ratio to ketamine” value in series [1] was determined as 0.51. In series [2], the “PWR = 1 Dose, head-to-head ratio to ketamine” value was found to be 1.76 and the “PWR = 1 Time, head-to-head ratio to ketamine” value came out at 1.81.

As to `CCCOC(=O)CCCNC1(c2ccccc2Cl)CCCCC1=O.Cl` (racemic) [rac-C3nPr, N-Propyl 4-((1-(2-chlorophenyl)-2-oxocyclohexyl)amino)butanoate Hydrochloride], in series [1], the “LRR Dose, head-to-head ratio to ketamine” value came out at 5.95; the “LRR Time, head-to-head ratio to ketamine” value is on record as 4.77; the “RRR Time, head-to-head ratio to ketamine” value amounted to 0.012; the “Walk Time, head-to-head ratio to ketamine” value was found to be 0.05. In series [1], the “Walk Time” value stood at 65 ± 33 s, the “RRR Time” value turned out to be 10 ± 5.5 s, the “LRR Time” value was 329 ± 106 s and the “LRR Dose” value is recorded as 137 ± 48 mg/kg. For the same compound, in series [2], the “PWR = 1 Dose, head-to-head ratio to ketamine” value is 7.46; the “PWR = 1 Time, head-to-head ratio to ketamine” value came out at 6.64; the “PWR = 1 Time” value was 558 ± 42 s; the “PWR = 1 Dose” value stood at 209 ± 20 mg/kg.

Consider `CC(=O)OCCCNC1(c2ccccc2Cl)CCCCC1=O.Cl` (racemic) [rac-C3OAc, Rac-3-((1-(2-Chlorophenyl)-2-oxocyclohexyl)amino)propyl Acetate Hydrochloride], for which the melting point was in the range of 180 to 183 °C.

In the case of `COC(=O)CCCCNC1(c2ccccc2Cl)CCCCC1=O.Cl` (racemic) [rac-C4Me, Rac-Methyl 5-((1-(2-chlorophenyl)-2-oxocyclohexyl)amino)pentanoate Hydrochloride], in series [1], the minimal effective dose came to 34 ± 7 mg/kg; the “properties of racemate versus enantiomer (in words)” value was “broadly equivalent properties”; the “LRR Dose, head-to-head ratio to ketamine” value was found to be 1.70; the “LRR Time, head-to-head ratio to ketamine” value worked out at 1.31. Besides, in series [1], the “RRR Time, head-to-head ratio to ketamine” value is 0.090; the “Walk Time, head-to-head ratio to ketamine” value is recorded as 0.086; the “Walk Time” value turned out to be 126 ± 32 s; the “RRR Time” value worked out at 99 ± 16 s. For the same compound, the “LRR Time” value in series [1] was determined as 92 ± 14 s. In series [2], the minimal effective dose is 44 ± 10 mg/kg; the “PWR = 1 Dose, head-to-head ratio to ketamine” value came out at 2.00; the “PWR = 1 Time, head-to-head ratio to ketamine” value is reported as 1.53; the “PWR = 1 Time” value was 124 ± 21 s.

`CC(=O)OCCCN[C@]1(c2ccccc2Cl)CCCCC1=O.Cl` [(S)-C3OAc, (S)-3-((1-(2-Chlorophenyl)-2-oxocyclohexyl)amino)propyl Acetate Hydrochloride]: in series [1], the minimal effective dose turned out to be 26 ± 3 mg/kg; the “potency (in words)” value is reported as “about as potent as ketamine”; the “LRR Dose, head-to-head ratio to ketamine” value came to 1.30; the “LRR Time, head-to-head ratio to ketamine” value was 1.37. In addition, in series [1], the “RRR Time, head-to-head ratio to ketamine” value is recorded as 0.65; the “Walk Time, head-to-head ratio to ketamine” value was determined as 0.51; the “Walk Time” value was determined as 983 ± 93 s; the “RRR Time” value came to 566 ± 30 s. Moreover, the “LRR Time” value in series [1] was found to be 81 ± 10 s. In series [1] (after discontinuation of infusion), the “recovery, fold faster than ketamine” value is given as 1.5-2 fold. In addition, in series [2], the minimal effective dose is 34 ± 1 mg/kg; the “PWR = 1 Dose, head-to-head ratio to ketamine” value stood at 1.10; the “PWR = 1 Time, head-to-head ratio to ketamine” value stood at 1.12; the “PWR = 1 Time” value is 104 ± 7 s.

Regarding `CCCOC(=O)CCNC1(c2ccccc2Cl)CCCCC1=O.Cl` (racemic) [rac-C2nPr, N-Propyl 3-((1-(2-chlorophenyl)-2-oxocyclohexyl)amino)propanoate Hydrochloride], in series [1], the “LRR Dose, head-to-head ratio to ketamine” value is 7.28; the “LRR Time, head-to-head ratio to ketamine” value was 7.92; the “Walk Time” value turned out to be 0 s; the “RRR Time” value came out at 0 s. In series [1], the “LRR Time” value came out at 404 ± 196 s and the “LRR Dose” value is recorded as 131 ± 62 mg/kg. Also, in series [2], the “PWR = 1 Dose, head-to-head ratio to ketamine” value came to 6.48; the “PWR = 1 Time, head-to-head ratio to ketamine” value turned out to be 6.67; the “PWR = 1 Time” value is 420 ± 180 s; the “PWR = 1 Dose” value is 136 ± 67 mg/kg.

`CCOC(=O)CCN[C@]1(c2ccccc2Cl)CCCCC1=O.Cl` [(S)-C2Et, (S)-Ethyl 3-((1-(2-chlorophenyl)-2-oxocyclohexyl)amino) propanoate Hydrochloride]: in series [1], the “potency (in words)” value is reported as “only half as potent”; the “recovery (in words)” value is recorded as “faster recoveries than the corresponding racemates”; the “LRR Dose, head-to-head ratio to ketamine” value came out at 2.95; the “LRR Time, head-to-head ratio to ketamine” value amounted to 3.22. Further, in series [1], the “RRR Time, head-to-head ratio to ketamine” value is 0.05; the “Walk Time, head-to-head ratio to ketamine” value was found to be 0.04; the “Walk Time” value was found to be 80 ± 8 s; the “RRR Time” value was determined as 62 ± 8 s. In series [1], the “LRR Time” value came out at 171 ± 54 s and the “LRR Dose” value was 59 ± 19 mg/kg. In series [2], the “PWR = 1 Dose, head-to-head ratio to ketamine” value is recorded as 2.38; the “PWR = 1 Time, head-to-head ratio to ketamine” value is recorded as 2.53; the “PWR = 1 Time” value is 185 ± 55 s; the “PWR = 1 Dose” value is given as 62 ± 20 mg/kg.

Regarding `CCCOC(=O)CCCCNC1(c2ccccc2Cl)CCCCC1=O.Cl` (racemic) [rac-C4nPr, N-Propyl 5-((1-(2-chlorophenyl)-2-oxocyclohexyl)amino)pentanoate Hydrochloride], in series [1], the “LRR Dose, head-to-head ratio to ketamine” value is 3.56; the “LRR Time, head-to-head ratio to ketamine” value was found to be 4.17; the “RRR Time, head-to-head ratio to ketamine” value is listed as 0.05; the “Walk Time, head-to-head ratio to ketamine” value was found to be 0.08. For the same compound, in series [1], the “Walk Time” value turned out to be 90 ± 30 s, the “RRR Time” value amounted to 45 ± 15 s, the “LRR Time” value is 271 ± 97 s and the “LRR Dose” value amounted to 82 ± 34 mg/kg. Besides, in series [2], the “PWR = 1 Dose, head-to-head ratio to ketamine” value is on record as 3.19; the “PWR = 1 Time, head-to-head ratio to ketamine” value was found to be 3.60; the “PWR = 1 Time” value amounted to 277 ± 97 s; the “PWR = 1 Dose” value was 83 ± 34 mg/kg.

The values above are taken from patent US10239825B2, “Ketamine derivatives” (Auckland Uniservices Limited, priority 2013, dated 2019).
